Where two headings read alike, the source gives them in different places.
Legend:
[1] = tested on: IL-1β; assay: Gene expression in rat articular chondrocytes under IL-1β stimulation, IL-1β; assay type: cell-based; details: for IC50: Rattus norvegicus, Chondrocyte, 6 h incubation; for IL-1β gene expression, percentage of inhibitory effect at the highest non toxic concentration: 6 h
Experimental: (§1) For gene expression analysis, 10 days after plating, the medium was changed and substituted with DMEM GlutaMAX I 0.4% to synchronize the cells. The cells were then co-treated in DMEM GlutaMAX I 0.4% with different concentrations of the test compounds and […] at a final concentration of 2 ng/ml for 6 h and 24 h. The test compound concentrations used have been chosen on the basis of the toxicity data.
(§2) At the end of the incubation, the supernatant was discarded, the cell were washed with cold PBS1X and scraped with 200 μl of RNA lysis buffer 1X (Nucleic Acid Purification Lysis Solution, Applied Biosystems).
(§3) Total RNA was purified using ABI Prism™ 6100 Nucleic Acid PrepStation (Applied Biosystems) following manufacturer's instructions.
(§4) Total RNA was retrotranscribed using the High-Capacity cDNA Archive Kit (Applied Biosystems-Thermo Fisher Scientific) following manufacturer's instructions.
(§5) The specific probes and primers for RealTime PCR were from Applied Biosystems (Thermo Fisher Scientific) as Assays-on-Demand™, while the probe and primers for the endogenous control 18S was a PDAR (Pre-Developed TaqMan® Assay Reagents—Applied Biosystems-Thermo Fisher Scientific).
(§6) The assays were designed to amplify target cDNA without amplifying genomic DNA.
(§7) Gene expression analysis for IL-1β, IL-6 and ADAMTS-5 were performed at 6 h incubation, while the gene expression analysis for MMP3, MMP13 and COX2 were performed at 24 h incubation.
(§8) For each compound the maximal concentration tested was dependent on the toxicity results obtained on primary rat chondrocytes.
(§9) The data analysis, with the normalisation on the amplified values for the 18S was done following the specific instruction of Applied Biosystems for the relative quantification of gene expression.

[2] = biological target: VEGFR2 (Homo sapiens (Human), UniProt P35968); assay: In vitro VEGFR2 kinase activity assay (Eurofins Cerep); assay type: biochemical; details: read-out: VEGFR2 KINASE INHIBITION IC50
Experimental: The VEGFR2 kinase inhibitory activity of representative examples of compounds of Formula (I) assays was evaluated in Eurofins Cerep (France). The concentration range of the inhibitors under investigation was from 10^−8 M up to 10^−5 M final concentration. Some compounds were re-tested in a concentration-range starting from 10^−9 M. The results are expressed as a percent of control activity (in the absence of test compound) and the IC50 values were determined by non-linear regression analysis of the inhibition/concentration curves generated with mean replicate values.

[3] = tested on: MMP3; assay: Gene expression in rat articular chondrocytes under IL-1β stimulation, MMP3; assay type: cell-based; set-up: key to MMP3 gene expression, no effect: ne: no effect; details: for MMP3 gene expression, no effect: 24 h; for IC50: Rattus norvegicus, Chondrocyte, 24 h incubation
Experimental: as §1, §2, §3, §4, §5, §6, §7, §8, §9

[4] = tested on: IL-6; assay: Gene expression in rat articular chondrocytes under IL-1β stimulation, IL-6; assay type: cell-based; details: for IL-6 gene expression, percentage of inhibitory effect at the highest non toxic concentration: 6 h; for IC50: Rattus norvegicus, Chondrocyte, 6 h incubation
Experimental: as §1, §2, §3, §4, §5, §6, §7, §8, §9

[5] = tested on: ADAMTS-5; assay: Gene expression in rat articular chondrocytes under IL-1β stimulation, ADAMTS-5; assay type: cell-based; set-up: key to ADAMTS-5 gene expression, no effect: ne: no effect; details: for IC50: Rattus norvegicus, Chondrocyte, 6 h incubation
Experimental: as §1, §2, §3, §4, §5, §6, §7, §8, §9

[6] = tested on: NF-kB; assay: Gene reporter (GR) assay, NF-kB activation after TNFα in JB6 Cl 41-5a (P+) cells; assay type: cell-based, murine; details: for IC50: TNFα 2 ng/ml, non toxic concentrations, read-out: Gene reporter (GR) inhibition IC50
From the text: To determine if the compounds of the invention were active also in a cellular model, a gene reporter assay was established in a cell line (JB6 Cl 41-5a (P+)) know to activate Fyn kinase via an inflammatory stimuli (TNFα). GR assay measures the activation of the nuclear transcription factor NF-kB, situated down-stream the Fyn activation pathway. Products active in this analysis has to penetrate in the cell and inhibit the activation pathway of NF-kB.
The murine epithelial cell line JB6 Cl 41-5a (P+) (ATCC® Cat. #CRL-2010) was stably transfected with the pGL4.32[luc2P/NFkB-RE/Hygro] vector (Promega). Clonal selection was achieved by limiting with 80 μg/ml Hygromycin B. The clones were tested for their response to TNFα stimulus.
JB6(P+) NFkB-RE-luc2P transfected cells were used for the analysis of NF-kB activity modulation, after TNFα stimulation, by Fyn-inhibitors.
Cells were pre-treated with the different compounds for 1 h and then stimulated with 2 ng/ml TNFα for 4 h. Each tested condition was analyzed in quadruplicate.
The luciferase analysis was performed with ONE-Glo™+ToxLuciferase Reporter and Cell Viability Assay kit (Promega).

[7] = tested on: MMP13; assay: Gene expression in rat articular chondrocytes under IL-1β stimulation, MMP13; assay type: cell-based; set-up: key to MMP13 gene expression, no effect: ne: no effect
Experimental: as §1, §2, §3, §4, §5, §6, §7, §8, §9

[8] = tested on: COX2; assay: Gene expression in rat articular chondrocytes under IL-1β stimulation, COX2; assay type: cell-based; details: for COX2 gene expression, percentage of inhibitory effect at the highest non toxic concentration: 24 h
[9] = tested on: rat primary articular chondrocytes; assay: Toxicity analysis (MTT) in rat primary chondrocytes; details: for First toxic concentration at 24 h: rat primary chondrocytes
Experimental: Purified chondrocytes were resuspended in DMEM glutaMAX 10% and plated in a 96X well plate for toxicity analysis and in a 6X well plate for gene expression analysis.
For toxicity analysis cells were then treated with the different compounds for 24 and 48 h. At the end of the incubation time, the medium was removed and was substituted with a mixture 10:1 of DMEM glutaMAX 10%—MTT (2 mg/ml) for 1 h at 37° C. in the cell incubator. After this incubation, the precipitated salt was dissolved with 100 μl of DMSO and the plate was read at 540 nm. The toxicity analysis were performed to decide the maximal non toxic concentration of each compound used in the gene expression assay.

[10] = biological target: Fyn (Homo sapiens (Human), UniProt P06241); assay: Z′-LYTE in vitro Fyn kinase activity assay; assay type: biochemical; details: ATP 50 μM; read-out: FYN KINASE INHIBITION IC50
Experimental: The Fyn kinase inhibitory activity of representative examples of compounds of Formula (1) was evaluated by Z′-LYTE™ Kinase Assay Platform (Invitrogen). Compounds were evaluated towards active Fyn (full length active, molecular weight 87.1 kDa; Invitrogen). […] Samples representing the 0% inhibition (or total enzymatic activity) were in the presence of compound diluent (1% DMSO final in Reaction Buffer 50 mMHepes, 10 mM MgCl2, 1 mM EGTA, 0.01% Brij-35, pH 7.5). The kinase reaction was carried out in a total volume of 10 μl, for 60 minutes at 25° C. The 0% Phosphorylation (i.e. no ATP) and 100% Phosphorylation Assay Controls, included in each plate, allowed to calculate the percent phosphorylation achieved in the specific reaction well. Results are expressed as percentage of inhibition and the IC50 values were calculated by non-linear curve fitting using GraphPad™ Prism software (version 6 for Windows).

[11] = tested on: bovine nasal septum cartilage; assay: Inhibition of cartilage degradation (GAG release) induced by IL-1α in a bovine in vitro model; assay type: cell-based; details: Bos taurus, read-out: Bovine cartilage degradation induced by IL-1α, % inhibitory effect at max concentration
Experimental: Nasal septum cartilage was collected from an eight months-old male bovine in a local slaughterhouse.
Tissue was sprayed with ethanol 70% and immediately put in sterile PBS with Antibiotic-Antimycotic stabilized solution (PBS-AASS). It was cut in order to obtain small punches (diameter 2 mm, 1 mm-thick). washed with sterile PBS-AASS, the slices were transferred in a 96X well plate (one piece per well) in DMEM 10%+AASS. 48 h later the cartilage was stimulated in white DMEM+0.1% BSA+AASS with IL-1α […] in the absence or presence of the studied compounds.
The compounds concentration used in this analysis was chosen depending on the toxicity results obtained in rat primary chondrocytes at 48 h of incubation.
After 48 h stimulation, the culture medium was collected and stored at −80° C. The cartilage punches were digested with papain at 65° C. for 2 h in phosphate buffer (0.05M pH 6.5 with 2 mM N-acetil-L-cisteine and 2 mM EDTA).
The glycosaminoglycan (GAG) determination was done by a colorimetric assay with 1,9 dimethyl methylene blue (DMB).
Digested cartilage samples were diluted in PBS-BSA 1%. To 100 μl of diluted samples or standard we added 100 μl DMB 2X. After 5-20 min incubation the samples were read at 590 nm (Titertek Multiscan Plus).
The cartilage degradation induced by IL-1α was expressed as: GAG (medium)/total GAG (medium+cartilage)×100

[12] = Rattus norvegicus, Chondrocyte, 24 h incubation

VEGFR2, sequence (P35968 20-1356): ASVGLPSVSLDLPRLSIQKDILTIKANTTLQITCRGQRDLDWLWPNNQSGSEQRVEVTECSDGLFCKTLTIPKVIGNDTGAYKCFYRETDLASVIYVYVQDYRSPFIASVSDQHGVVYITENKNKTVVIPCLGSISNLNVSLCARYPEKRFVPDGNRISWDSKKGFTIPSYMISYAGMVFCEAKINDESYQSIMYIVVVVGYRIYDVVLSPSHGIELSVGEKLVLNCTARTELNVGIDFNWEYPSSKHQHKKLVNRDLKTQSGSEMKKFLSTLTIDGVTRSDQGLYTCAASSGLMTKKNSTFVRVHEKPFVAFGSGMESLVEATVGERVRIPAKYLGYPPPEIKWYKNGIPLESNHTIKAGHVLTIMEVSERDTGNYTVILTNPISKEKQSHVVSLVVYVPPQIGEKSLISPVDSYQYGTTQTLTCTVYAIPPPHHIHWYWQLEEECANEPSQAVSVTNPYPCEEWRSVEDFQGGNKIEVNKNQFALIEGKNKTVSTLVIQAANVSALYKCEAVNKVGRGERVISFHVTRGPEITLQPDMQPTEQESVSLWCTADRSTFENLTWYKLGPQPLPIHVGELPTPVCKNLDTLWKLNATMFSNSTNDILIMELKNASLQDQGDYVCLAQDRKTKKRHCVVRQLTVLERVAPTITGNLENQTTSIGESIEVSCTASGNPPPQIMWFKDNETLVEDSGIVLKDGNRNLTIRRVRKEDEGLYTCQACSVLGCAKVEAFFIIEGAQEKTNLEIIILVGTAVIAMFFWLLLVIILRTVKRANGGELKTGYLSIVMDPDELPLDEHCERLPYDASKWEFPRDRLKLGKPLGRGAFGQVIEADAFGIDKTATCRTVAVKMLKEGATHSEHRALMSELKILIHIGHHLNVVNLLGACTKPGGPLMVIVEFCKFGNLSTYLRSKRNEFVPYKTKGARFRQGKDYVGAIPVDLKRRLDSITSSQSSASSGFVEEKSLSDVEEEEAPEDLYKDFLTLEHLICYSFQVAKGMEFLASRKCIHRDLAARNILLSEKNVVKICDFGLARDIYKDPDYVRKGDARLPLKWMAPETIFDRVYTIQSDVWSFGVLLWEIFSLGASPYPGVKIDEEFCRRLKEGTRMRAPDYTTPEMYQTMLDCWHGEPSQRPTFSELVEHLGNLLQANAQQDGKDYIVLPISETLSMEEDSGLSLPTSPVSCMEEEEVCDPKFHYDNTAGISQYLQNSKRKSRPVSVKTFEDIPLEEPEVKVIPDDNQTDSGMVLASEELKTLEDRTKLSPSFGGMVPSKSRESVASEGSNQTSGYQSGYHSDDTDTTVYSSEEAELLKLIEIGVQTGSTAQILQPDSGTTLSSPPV
Fyn, sequence (P06241 whole entry): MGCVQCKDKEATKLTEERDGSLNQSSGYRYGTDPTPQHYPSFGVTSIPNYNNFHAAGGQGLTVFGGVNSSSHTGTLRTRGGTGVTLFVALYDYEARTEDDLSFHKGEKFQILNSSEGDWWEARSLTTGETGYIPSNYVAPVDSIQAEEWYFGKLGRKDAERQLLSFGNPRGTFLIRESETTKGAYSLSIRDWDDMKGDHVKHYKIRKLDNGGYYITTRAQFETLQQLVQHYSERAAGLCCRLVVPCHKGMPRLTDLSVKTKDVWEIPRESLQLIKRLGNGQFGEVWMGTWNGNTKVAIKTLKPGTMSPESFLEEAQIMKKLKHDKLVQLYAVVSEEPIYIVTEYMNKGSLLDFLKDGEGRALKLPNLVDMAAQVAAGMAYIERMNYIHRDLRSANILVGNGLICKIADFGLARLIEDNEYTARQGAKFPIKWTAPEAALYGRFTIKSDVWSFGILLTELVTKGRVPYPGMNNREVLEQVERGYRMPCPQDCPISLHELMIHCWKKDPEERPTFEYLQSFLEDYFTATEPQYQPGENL

Row | SMILES | IC50 [1] [nM] | IC50 [2] [nM] | MMP3 gene expression, no effect [3] | IC50 ([6]; Mus musculus, JB6 Cl 41-5a) [nM] | COX2 gene expression, percentage of inhibitory effect at the highest non toxic concentration ([8]; 1 μM) | First toxic concentration at 24 h [9] [µM] | IC50 [10] [nM] | also measured
1 | Cc1ccc(NC(=O)c2cc(S(=O)(=O)C3CC3)ccn2)cc1CCc1cc(Nc2cnccn2)[nH]n1 [Compound 8, 4-(cyclopropylsulfonyl)-N-(4-methyl-3-(2-(5-(pyrazin-2-ylamino)-1H-pyrazol-3-yl)ethyl)phenyl)picolinamide] | 300 | < 10 | ne | < 250 | 1 μM 63% | 3 | 20 | IL-6 gene expression, percentage of inhibitory effect at the highest non toxic concentration ([4]; 1 μM): 1 μM 99%; ADAMTS-5 gene expression, no effect ([5]; 6 h): ne; IC50 [6]: 233 nM; MMP13 gene expression, no effect ([7]; 24 h): ne
2 | Cc1nc(C#N)cc(Nc2cc(CCc3cc(NC(=O)c4ccc(CN(C)C)c(C(F)(F)F)c4)ccc3F)n[nH]2)n1 [Compound 39, N-(3-(2-(5-((6-cyano-2-methylpyrimidin-4-yl)amino)-1H-pyrazol-3-yl)ethyl)-4-fluorophenyl)-4-((dimethylamino)methyl)-3-(trifluoromethyl)benzamide] | – | 11 | – | 1060 | – | 10 | 1 | IL-1β gene expression, percentage of inhibitory effect at the highest non toxic concentration ([1]; 3 μM): 3 μM 100%; IC50 [3]: 1200 nM; IL-6 gene expression, percentage of inhibitory effect at the highest non toxic concentration ([4]; 3 μM): 3 μM 100%; IC50 [5]: 500 nM; MMP13 gene expression, percentage of inhibitory effect at the highest non toxic concentration ([7]; 3 μM, 24 h): 3 μM 90%; COX2 gene expression, percentage of inhibitory effect at the highest non toxic concentration ([8]; 3 μM): 3 μM 99%
3 | Cc1ccc(NC(=O)c2cccc(S(C)(=O)=O)c2)cc1CCc1cc(Nc2cnccn2)[nH]n1 [Compound 1, N-(4-methyl-3-(2-(5-(pyrazin-2-ylamino)-1H-pyrazol-3-yl)ethyl)phenyl)-3-(methylsulfonyl)benzamide] | 2100 | – | ne | 5080 | – | >10 | – | inhibition at 3 µM ([11]; 3 μM): 88%; IC50 [4]: 1600 nM; ADAMTS-5 gene expression, percentage of inhibitory effect at the highest non toxic concentration ([5]; 10 μM, 6 h): 10 μM 38%; MMP13 gene expression, percentage of inhibitory effect at the highest non toxic concentration ([7]; 10 μM, 24 h): 10 μM 38%; IC50 [8, 12]: 3100 nM; First toxic concentration at 48 h in rat primary chondrocytes [9]: 10 µM
4 | Cc1ccc(NC(=O)c2cc(C(F)(F)F)ccc2F)cc1CCc1cc(Nc2cnccn2)[nH]n1 [Compound 7, 2-fluoro-N-(4-methyl-3-(2-(5-(pyrazin-2-ylamino)-1H-pyrazol-3-yl)ethyl)phenyl)-5-(trifluoromethyl)benzamide] | 100 | < 10 | ne | 1160 | 1 μM 41% | 3 | 63 | IC50 [4]: 200 nM; ADAMTS-5 gene expression, percentage of inhibitory effect at the highest non toxic concentration ([5]; 1 μM, 6 h): 1 μM 81%; MMP13 gene expression, percentage of inhibitory effect at the highest non toxic concentration ([7]; 1 μM, 24 h): 1 μM 38%
5 | Cc1ccc(NC(=O)c2cccc(C(F)(F)F)c2)cc1CCc1cnc(Nc2cnccn2)s1 [Compound 49, N-(4-methyl-3-(2-(2-(pyrazin-2-ylamino)thiazol-5-yl)ethyl)phenyl)-3-(trifluoromethyl) benzamide] | – | – | – | 422 | 1 μM 93% | 3 | 143 | inhibition at 1 µM ([11]; 1 μM): 35%; IL-1β gene expression, percentage of inhibitory effect at the highest non toxic concentration ([1]; 1 μM): 1 μM 91%; IC50 [3]: 500 nM; IL-6 gene expression, percentage of inhibitory effect at the highest non toxic concentration ([4]; 1 μM): 1 μM 100%; IC50 [5]: 200 nM; IC50 [7, 12]: 240 nM; First toxic concentration at 48 h in rat primary chondrocytes [9]: 3 µM
6 | Cc1nc(CN2CCOCC2)cc(Nc2cc(CCc3cc(NC(=O)c4cccc(C(F)(F)F)c4)ccc3F)[nH]n2)n1 [Compound 26, N-(4-fluoro-3-(2-(3-((2-methyl-6-(morpholinomethyl)pyrimidin-4-yl)amino)-1H-pyrazol-5-yl)ethyl)phenyl)-3-(trifluoromethyl)benzamide] | – | < 10 | – | – | – | – | 12 | inhibition at 3 µM ([6]; Mus musculus, JB6 Cl 41-5a, 3 μM, read-out: Gene reporter (GR) inhibition % effect at max concentration): 50%
7 | Cc1ccc(NC(=O)c2cc(C(C)(C)C#N)ccn2)cc1CCc1cc(Nc2cnccn2)[nH]n1 [Compound 41, 4-(2-cyanopropan-2-yl)-N-(4-methyl-3-(2-(5-(pyrazin-2-ylamino)-1H-pyrazol-3-yl)ethyl)phenyl)picolinamide] | – | < 10 | – | 327 | – | – | 8 | –

— patent US12509446B2, “FYN and VEGFR2 kinase inhibitors” (ROTTAPHARM BIOTECH S.R.L., priority 2019, dated 2025)
